In US8431530B2, “Compositions and methods for treating aids or cancer by inhibiting the secretion of microparticles” (priority 2009, dated 2013):

How the values were obtained:
[1] = lower doses could be less toxic; cited from earlier work
human tumor cell lines = settings: cited from earlier work
Mortalin = Mortalin (Homo sapiens, UniProt P38646); settings: literature; inactivates chaperone function; cited from earlier work
[2] = system: HIV-1 Nef-GFP secretion, cell line H; assay: HIV-1 Nef-GFP induced secretion, fluorescent plate reader assay; type: cell-based; settings: HIV-1 Nef-GFP (sM1 column head prints GFP/sM1)
pNL4-3 in Jurkat cells = assay: p24 assay of virion production after pNL4-3 co-transfection; type: cell-based, HIV; settings: Jurkat; for p24: co-transfected with pNL4-3; for Effect (a/b): p24 of sample / p24 of pNL4-3 + sM1
Experimental: I. Jurkat cells were co-transfected as shown below: (transfection efficiency 30-40% by Chariot Kit):
(§1) pNL4-3 is a clone containing the viral genome. Transfection into cells allows expression of the viral genome and ultimately virion formation and release. The amount of virion production in the extracellular supernatant is measured through p24 protein (viral protein). Samples were collected at 48 hours and 96 hours post-infection.
(§2) At 48 hr postinfection two plates in each group were removed and analyzed by: • a. p24 assay • b. Nef assay • c. Infectivity assay • At 96 hr postinfection the other two plates in each group were removed and analyzed by: • a. p24 assay • b. Nef assay • c. Infectivity assay

[3] = system: NefGFP release from HEK293 cells; assay: Nef-GFP co-transfection secretion assay, GFP fluorescence of supernatant; type: cell-based; settings: HEK293, 0.5 μg Nef-GFP + 0.5 μg peptide, Chariot, 48 h; relative to NefGFP+sM1 (100%)
Experimental: Therefore, a set of co-transfection experiments were performed. HEK293 cells were co-transfected with 0.5 μg of pQBI-HIV Nef-GFP (expresses wild type Nef protein) and either 0.5 μg of HIV-1 Nef SMRwt or SMRmut peptide or sM1 peptide (a totally random control peptide, ALAETCQNAWA (SEQ ID NO: 7)) with Chariot. Briefly, the wild-type Nef-GFP clone and the SMR peptides were complexed with Chariot reagent for 30 minutes at RT. The DNA/peptide/Chariot complex was added to HEK293 cells in serum-free media, and the cells were plated. Following incubation for 2 hours at 37° C., media with serum was added to the dish, and the cells were incubated at 37° C. for 48 h. The media was then collected and assayed for secretion using a spectrofluorimeter. The conditioned supernatants from these cultures were assayed for GFP fluorescence by plate reader.

pNL4-3 in 293 cells = assay: p24 assay of virion production after pNL4-3 co-transfection; type: cell-based, HIV; settings: for p24: co-transfected with pNL4-3; for Effect (a/b): p24 of sample / p24 of pNL4-3 + sM1
Experimental: as §1, §2

[4] = system: Gag-GFP + HIV-1wtNef-RFP secretion, Jurkat; assay: Gag-GFP secretion in presence of wtNef-RFP, fluorescent plate reader assay; type: cell-based; settings: Jurkat, Gag-GFP + HIV-1wtNef-RFP + peptide, 48 hours
Experimental: (§3) Cells were transfected with the pQBI-HIV Gag-GFP construct, wtNef-RFP, and either the antagonist (SMRwt peptide), the negative control SMRmt peptide, or a random peptide sM1 with Chariot for 48 hours. The conditioned supernatants from these cultures were assayed for GFP fluorescence by plate reader.

[5] = system: Gag-GFP + HIV-1wtNef-RFP secretion, THP-1 Monocyte; assay: as above; type: cell-based; settings: Gag-GFP + HIV-1wtNef-RFP + peptide, 48 hours
Experimental: as §3

[6] = system: HIV-1 Gag-GFP secretion, HEK293; assay: HIV-1 Gag-GFP induced secretion, fluorescent plate reader assay; type: cell-based; settings: HEK293, HIV-1 Gag-GFP (sM1 column head prints GFP/sM1), 0.5 μg peptide, 48 hours
Experimental: (§4) Cells were co-transfected with 0.5 μg of pQBI-HIV Gag-GFP (expresses wild type Gag protein) and either 0.5 μg of HIV-1 Nef SMRwt, SMRmut peptide, sM1 peptide or untransfected controls with Chariot for 48 hours. The conditioned supernatants from these cultures were assayed for GFP fluorescence by plate reader.

[7] = system: HIV-1 Gag-GFP secretion, THP-1; assay: as above; type: cell-based; settings: THP-1, HIV-1 Gag-GFP (sM1 column head prints GFP/sM1), 0.5 μg peptide, 48 hours
Experimental: as §4

[8] = system: HIV-1 Gag-GFP secretion, Jurkat; assay: as above; type: cell-based; settings: HIV-1 Gag-GFP (sM1 column head prints GFP/sM1), 0.5 μg peptide, 48 hours
Experimental: as §4

[9] = system: HIV-1 Gag-GFP secretion, U937; assay: as above; type: cell-based; settings: U937, HIV-1 Gag-GFP (sM1 column head prints GFP/sM1), 0.5 μg peptide, 48 hours
Experimental: as §4

Chain of Mortalin (P38646 47-679): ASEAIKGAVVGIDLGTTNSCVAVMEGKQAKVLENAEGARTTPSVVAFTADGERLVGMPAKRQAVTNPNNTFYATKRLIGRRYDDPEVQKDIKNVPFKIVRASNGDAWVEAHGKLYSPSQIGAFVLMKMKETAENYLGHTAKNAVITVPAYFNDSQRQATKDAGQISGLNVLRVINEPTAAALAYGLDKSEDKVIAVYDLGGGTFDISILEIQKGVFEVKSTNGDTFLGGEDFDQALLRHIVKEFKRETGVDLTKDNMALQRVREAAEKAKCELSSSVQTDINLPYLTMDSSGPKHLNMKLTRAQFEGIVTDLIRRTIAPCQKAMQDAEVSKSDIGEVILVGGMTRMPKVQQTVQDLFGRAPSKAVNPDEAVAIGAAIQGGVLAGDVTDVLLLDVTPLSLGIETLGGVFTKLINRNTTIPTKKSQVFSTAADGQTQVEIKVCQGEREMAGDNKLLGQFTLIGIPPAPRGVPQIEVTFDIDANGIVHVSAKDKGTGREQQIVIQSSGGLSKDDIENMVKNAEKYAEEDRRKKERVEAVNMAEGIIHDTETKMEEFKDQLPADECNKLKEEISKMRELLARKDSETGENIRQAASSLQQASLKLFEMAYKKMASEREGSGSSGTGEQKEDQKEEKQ

CCn1c(=O)/c(=C2\Sc3ccccc3N2C)s/c1=C\c1cccc[n+]1CC.[Cl-] [MKT-077]
toxicity in clinical trials [1]: renal toxicity | death of cancer cells (human tumor cell lines; literature (Deocaris et al. 2007)): causes selective death of cancer cells | senescence in human tumor cell lines (human tumor cell lines; literature): inducing senescence | binding to Mortalin (Mortalin): binds to the nucleotide-binding domain (NBD) of Mortalin

ALAETCQNAWA [sM1, a totally random control peptide]
Increase in Secretion (relative to untransfected cells), exp condition/UT [2]: 1.05x | p24 (pNL4-3 in Jurkat cells; 48 hr): 0 pg/mL | Effect (a/b) (pNL4-3 in Jurkat cells; 48 hr): 1 | p24 (pNL4-3 in Jurkat cells; 96 hr): 30 pg/mL | Effect (a/b) (pNL4-3 in Jurkat cells; 96 hr): 1 | release of NefGFP into the extracellular supernatant (GFP fluorescence) [3]: no effect | p24 (pNL4-3 in 293 cells; 293, 48 hr): 45 pg/mL | Effect (a/b) (pNL4-3 in 293 cells; 293, 48 hr): 1.0 | p24 (pNL4-3 in 293 cells; 293, 96 hr): 960 pg/mL | Effect (a/b) (pNL4-3 in 293 cells; 293, 96 hr): 1 | Secretion relative to untransfected cells ([4]; first line): 61.99x | Secretion relative to untransfected cells ([4]; second line (not explained)): 40.36x | Secretion relative to untransfected cells ([5]; first line): 43.11x | Secretion relative to untransfected cells ([5]; second line (not explained)): 20.51x | Increase in Secretion (relative to untransfected cells), exp condition/UT [6]: 2.05x | Increase in Secretion (relative to untransfected cells), exp condition/UT [7]: 0.85x | Increase in Secretion (relative to untransfected cells), exp condition/UT [8]: 1.09x | Increase in Secretion (relative to untransfected cells), exp condition/UT [9]: 1.05x
